From paper PMC6023086, “Improving the Activity of Trp-Rich Antimicrobial Peptides by Arg/Lys Substitutions and Changing the Length of Cationic Residues” (Biomolecules, 2018)
Values after ≈ are worked out from the molar mass of the structure shown. Read-outs that look alike come from different tables or passages of the source. Where a SMILES comes first, the peptide text is derived from it. Where no end group is shown, it is not given here. [ ]: non-standard residue; d: D form. Orn = NCCC[C@H](N)C(=O)O; Dab = NCC[C@H](N)C(=O)O; Dap = NC[C@H](N)C(=O)O

System: Escherichia coli ATCC 25922
Format: cell-based
Protocol: The antibacterial activity of the Tritrp-derived peptides and other AMPs was assessed against E. coli ATCC 25922, as a representative of Gram-negative bacteria, incubated in Mueller-Hinton broth media (Table 2). […] Arg-to-Lys mutations were correlated with a decrease in activity for almost all peptides. […] The lack of sensitivity of the activity of the Tritrp3 peptide to the nature of the positively charged residues prompted a more detailed study of the structure-activity relationship. Tritrp7 and Tritrp8 are analogs of Tritrp3 where only a single Pro residue is mutated by Ala. These mutations are known to alter the 3D structure of the peptides when interacting with sodium dodecyl sulfate (SDS) micelles, specifically reducing the helicity of the original Tritrp3 peptide (Table 1).
The antibacterial activity for the peptides in this study against E. coli ATCC 25922 was determined by the broth microdilution method. Briefly, E. coli cells at 5 × 10^5 cfu/mL, obtained from a single colony culture, were incubated in Mueller Hinton broth (MHB) media (Sigma Aldrich, St. Louis, MO, USA) in the presence of two-fold dilution of peptides (0–256 µM) in 96-well polypropylene microtiter plates (Sigma Aldrich, St. Louis, MO, USA). The plates were incubated at 37 °C for 16 h, and the minimal inhibitory concentration was determined after incubation as the minimal peptide concentration at which cell growth was not observed.

[1] = E. coli ATCC 25922, Mueller-Hinton broth, 5 × 10^5 cfu/mL, 37 °C, 16 h, run in triplicate, range of all three experiments

| MIC (ATCC 25922, 16 h) [µM] | Molecule | MIC [1] [µM] |
| --- | --- | --- |
| 4 (≈ 7.38 µg/mL) | CC(C)C[C@H](NC(=O)[C@H](Cc1ccccc1)NC(=O)[C@@H]1CCCN1C(=O)[C@H](Cc1c[nH]c2ccccc12)NC(=O)[C@H](Cc1c[nH]c2ccccc12)NC(=O)[C@H](Cc1c[nH]c2ccccc12)NC(=O)[C@@H]1CCCN1C(=O)[C@H](Cc1ccccc1)NC(=O)[C@H](CCNC(=N)N)NC(=O)[C@H](CCNC(=N)N)NC(=O)[C@@H](N)C(C)C)C(=O)N[C@@H](CCNC(=N)N)C(=O)N[C@@H](CCNC(=N)N)C(N)=O [Tritrp–Agb] | – |
| 2 to 4 | CC(C)C[C@H](NC(=O)[C@H](Cc1ccccc1)NC(=O)[C@@H]1CCCN1C(=O)[C@H](Cc1c[nH]c2ccccc12)NC(=O)[C@H](Cc1c[nH]c2ccccc12)NC(=O)[C@H](Cc1c[nH]c2ccccc12)NC(=O)[C@@H]1CCCN1C(=O)[C@H](Cc1ccccc1)NC(=O)[C@H](CCCNC(=N)N)NC(=O)[C@H](CCCNC(=N)N)NC(=O)[C@@H](N)C(C)C)C(=O)N[C@@H](CCCNC(=N)N)C(=O)N[C@@H](CCCNC(=N)N)C(N)=O [Tritrp–Arg] | – |
| 4 to 8 | CC(C)C[C@H](NC(=O)[C@H](Cc1ccccc1)NC(=O)[C@@H]1CCCN1C(=O)[C@H](Cc1c[nH]c2ccccc12)NC(=O)[C@H](Cc1c[nH]c2ccccc12)NC(=O)[C@H](Cc1c[nH]c2ccccc12)NC(=O)[C@@H]1CCCN1C(=O)[C@H](Cc1ccccc1)NC(=O)[C@H](CCN)NC(=O)[C@H](CCN)NC(=O)[C@@H](N)C(C)C)C(=O)N[C@@H](CCN)C(=O)N[C@@H](CCN)C(N)=O [Tritrp–Dab] (H-V[Dab][Dab]FPWWWPFL[Dab][Dab]-NH2) | – |
| 4 (≈ 6.48 µg/mL) | CC(C)C[C@H](NC(=O)[C@H](Cc1ccccc1)NC(=O)[C@@H]1CCCN1C(=O)[C@H](Cc1c[nH]c2ccccc12)NC(=O)[C@H](Cc1c[nH]c2ccccc12)NC(=O)[C@H](Cc1c[nH]c2ccccc12)NC(=O)[C@@H]1CCCN1C(=O)[C@H](Cc1ccccc1)NC(=O)[C@H](CN)NC(=O)[C@H](CN)NC(=O)[C@@H](N)C(C)C)C(=O)N[C@@H](CN)C(=O)N[C@@H](CN)C(N)=O [Tritrp–Dap] (H-V[Dap][Dap]FPWWWPFL[Dap][Dap]-NH2) | – |
| 16 (≈ 27.7 µg/mL) | CC(C)C[C@H](NC(=O)[C@H](Cc1ccccc1)NC(=O)[C@@H]1CCCN1C(=O)[C@H](Cc1c[nH]c2ccccc12)NC(=O)[C@H](Cc1c[nH]c2ccccc12)NC(=O)[C@H](Cc1c[nH]c2ccccc12)NC(=O)[C@@H]1CCCN1C(=O)[C@H](Cc1ccccc1)NC(=O)[C@H](CCCN)NC(=O)[C@H](CCCN)NC(=O)[C@@H](N)C(C)C)C(=O)N[C@@H](CCCN)C(=O)N[C@@H](CCCN)C(N)=O [Tritrp–Orn] (H-V[Orn][Orn]FPWWWPFL[Orn][Orn]-NH2) | – |
| 4 (≈ 7.83 µg/mL) | CC(C)C[C@H](NC(=O)[C@H](Cc1ccccc1)NC(=O)[C@@H]1CCCN1C(=O)[C@H](Cc1c[nH]c2ccccc12)NC(=O)[C@H](Cc1c[nH]c2ccccc12)NC(=O)[C@H](Cc1c[nH]c2ccccc12)NC(=O)[C@@H]1CCCN1C(=O)[C@H](Cc1ccccc1)NC(=O)[C@H](CCCCNC(=N)N)NC(=O)[C@H](CCCCNC(=N)N)NC(=O)[C@@H](N)C(C)C)C(=O)N[C@@H](CCCCNC(=N)N)C(=O)N[C@@H](CCCCNC(=N)N)C(N)=O [Tritrp–hArg] | – |
| – | FPVTWKWWKWWKG-NH2 [PuroA–Lys, reference compound] | 8 |
| – | FPVTWRWWRWWRG-NH2 [PuroA–Arg] | 8 to 16 |
| 8 | GIGRWLHSARRFGRAFVGEIMNS [Magainin2-F5W–Arg] | – |
| 16 | ILPWKWPWWPWKK-NH2 [Indolicidin–Lys] | – |
| 2 | VKKFAWWWAFLKK-NH2 [Tritrp3–Lys] | – |
| 32 | VKKFAWWWPFLKK-NH2 [Tritrp7–Lys] | – |
| 4 | VKKFPWWWAFLKK-NH2 [Tritrp8–Lys] | – |
| 16 | VKKFPWWWPFLKK-NH2 [Tritrp–Lys] | – |
| 2 | VRRFAWWWAFLRR-NH2 [Tritrp3–Arg] | – |
| 8 | VRRFAWWWPFLRR-NH2 [Tritrp7–Arg] | – |
| 2 to 4 | VRRFPWWWAFLRR-NH2 [Tritrp8–Arg] | – |

| Molecule | MIC (ATCC 25922, 16 h) [µM] | MIC [1] [µM] |
| --- | --- | --- |
| CC[C@H](C)[C@H](N)C(=O)N[C@@H](CC(C)C)C(=O)N1CCC[C@H]1C(=O)N[C@@H](Cc1c[nH]c2ccccc12)C(=O)N[C@@H](CCCCN)C(=O)N[C@@H](Cc1c[nH]c2ccccc12)C(=O)N1CCC[C@H]1C(=O)N[C@@H](Cc1c[nH]c2ccccc12)C(=O)N[C@@H](Cc1c[nH]c2ccccc12)C(=O)N1CCC[C@H]1C(=O)N[C@@H](Cc1c[nH]c2ccccc12)C(=O)N[C@@H](CCCNC(=N)N)C(=O)N[C@@H](CCCNC(=N)N)C(N)=O [Indolicidin, reference compound] | 8 (≈ 15.3 µg/mL) | – |
